Key:
Assay type in all cases: cell-based
BRAF V600E = biological target: T1, BRAF V600E (Homo sapiens, UniProt P15056, V600E); assay: BRAF HiBiT degradation assay, C-terminal HiBiT-tagged BRAF V600E A375 cells (clone 1F10), Nano-Glo HiBiT Lytic assay; conditions: for Dmax: A-375
T1 construct: endogenous C-terminal HiBiT fusion tag on BRAF V600E allele; endogenous in cells; host or cells: A375 clone 1F10 (CRISPR-Cas9 knock-in of the HiBiT tag; parental A375 from ATCC)
Outline: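 A375 cells with CRISPR knock-in C-terminal HiBiT on endogenous BRAF V600E (clone 1F10) were seeded and cultured 24 h at 37 °C, then dosed with an 11-point half-log series (1 μM to 0.01 nM, duplicate, 0.2% DMSO). Lytic HiBiT luminescence gave % protein remaining; DC50 was the fitted concentration at 50%.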

BRAF G466V = biological target: T2, BRAF G466V (Homo sapiens, UniProt P15056, G466V); assay: BRAF HiBiT degradation assay, C-terminal HiBiT-tagged BRAF G466V overexpressed in HCT-116 BRAF−/− cells (clone 8), Nano-Glo HiBiT Lytic assay
T2 construct: Horizon Discovery (HCT-116 BRAF−/− cells); host or cells: HCT-116 BRAF−/− cells, clone 8, lentiviral transduction
T2 sequence (P15056 whole entry G466V): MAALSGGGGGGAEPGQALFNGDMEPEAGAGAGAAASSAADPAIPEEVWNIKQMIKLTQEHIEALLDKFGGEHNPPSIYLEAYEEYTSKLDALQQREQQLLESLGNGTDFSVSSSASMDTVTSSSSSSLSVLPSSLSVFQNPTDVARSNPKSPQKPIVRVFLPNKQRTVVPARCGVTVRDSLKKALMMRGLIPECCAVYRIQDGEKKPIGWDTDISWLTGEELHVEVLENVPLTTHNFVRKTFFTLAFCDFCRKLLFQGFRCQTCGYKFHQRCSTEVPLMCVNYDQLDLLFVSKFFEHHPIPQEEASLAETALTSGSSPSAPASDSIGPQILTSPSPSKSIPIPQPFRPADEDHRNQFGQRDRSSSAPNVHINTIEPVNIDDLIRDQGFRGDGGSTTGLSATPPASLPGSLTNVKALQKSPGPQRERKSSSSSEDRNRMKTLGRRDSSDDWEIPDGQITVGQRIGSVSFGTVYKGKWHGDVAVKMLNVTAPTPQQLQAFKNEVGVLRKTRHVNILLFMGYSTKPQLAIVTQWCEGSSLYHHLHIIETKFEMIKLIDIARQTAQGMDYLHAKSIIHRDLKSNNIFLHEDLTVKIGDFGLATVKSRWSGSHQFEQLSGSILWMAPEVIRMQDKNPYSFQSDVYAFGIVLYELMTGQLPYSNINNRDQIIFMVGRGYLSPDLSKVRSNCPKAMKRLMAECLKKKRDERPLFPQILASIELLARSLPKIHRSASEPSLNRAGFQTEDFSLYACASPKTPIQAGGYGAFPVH
Outline: (§1)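 HCT-116 BRAF−/− cells stably expressing the tagged mutant were seeded at 3,000 cells/well and grown 24 h at 37 °C before an 11-point half-log series from 1 μM to 0.01 nM, run in duplicate at 0.2% DMSO. Lytic HiBiT luminescence gave % protein remaining versus DMSO controls; DC50 was the fitted concentration at 50%.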

BRAF D594G = biological target: T3, BRAF D594G (Homo sapiens, UniProt P15056, D594G); assay: BRAF HiBiT degradation assay, C-terminal HiBiT-tagged BRAF D594G overexpressed in HCT-116 BRAF−/− cells (clone 63), Nano-Glo HiBiT Lytic assay
T3 construct: Horizon Discovery (HCT-116 BRAF−/− cells); host or cells: HCT-116 BRAF−/− cells, clone 63, lentiviral transduction
T3 sequence (P15056 whole entry D594G): as the sequence (P15056 whole entry G466V) above, with V466G, D594G counted along it
Outline: as §1

BRAF G469A = biological target: T4, BRAF G469A (Homo sapiens, UniProt P15056, G469A); assay: BRAF HiBiT degradation assay, C-terminal HiBiT-tagged BRAF G469A overexpressed in HCT-116 BRAF−/− cells (clone 34), Nano-Glo HiBiT Lytic assay
T4 construct: Horizon Discovery (HCT-116 BRAF−/− cells); host or cells: HCT-116 BRAF−/− cells, clone 34, lentiviral transduction
T4 sequence (P15056 whole entry G469A): as the sequence (P15056 whole entry G466V) above, with V466G, G469A counted along it
Outline: as §1

[1] = A375 (BRAF V600E, Class 1), DC50 at 50% degradation
[2] = A375 (BRAF V600E, Class 1), observed Dmax, % protein degraded relative to DMSO control
[3] = BRAF G466V (Class 3), HCT-116 BRAF−/− cells, DC50 at 50% degradation
[4] = BRAF G466V (Class 3), HCT-116 BRAF−/− cells, observed Dmax relative to DMSO control
[5] = BRAF D594G (Class 3), HCT-116 BRAF−/− cells, DC50 at 50% degradation
[6] = BRAF D594G (Class 3), HCT-116 BRAF−/− cells, observed Dmax relative to DMSO control
[7] = BRAF G469A (Class 2), HCT-116 BRAF−/− cells, DC50 at 50% degradation
[8] = BRAF G469A (Class 2), HCT-116 BRAF−/− cells, observed Dmax relative to DMSO control
[9] = A375 (BRAF V600E), DC50 at 50%: fitted conc. at Y=50
[10] = A375 (BRAF V600E), percentage protein degraded at maximal compound effect relative to DMSO
[11] = BRAF G466V, DC50 at 50%: fitted conc. at Y=50
[12] = HCT-116, BRAF G466V, percentage protein degraded at maximal compound effect relative to DMSO
[13] = BRAF D594G, DC50 at 50%: fitted conc. at Y=50
[14] = HCT-116, BRAF D594G, percentage protein degraded at maximal compound effect relative to DMSO
[15] = Class 2, BRAF G469A, DC50 at 50%: fitted conc. at Y=50
[16] = HCT-116, Class 2, BRAF G469A, percentage protein degraded at maximal compound effect relative to DMSO

T1 sequence (P15056 whole entry V600E, the tested form may be a part): as the sequence (P15056 whole entry G466V) above, with V466G, V600E counted along it

Structure (SMILES) | DC50 (BRAF V600E; [1]) | Dmax (BRAF V600E; [2]) | DC50 (BRAF G466V; [3]) | Dmax (BRAF G466V; [4]) | DC50 (BRAF D594G; [5]) | Dmax (BRAF D594G; [6]) | DC50 (BRAF G469A; [7]) | Dmax (BRAF G469A; [8]) | DC50 (BRAF V600E; [9]) | Dmax (BRAF V600E; [10]) | DC50 (BRAF G466V; [11]) | Dmax (BRAF G466V; [12]) | DC50 (BRAF D594G; [13]) | Dmax (BRAF D594G; [14]) | DC50 (BRAF G469A; [15]) | Dmax (BRAF G469A; [16])
O=C1CCC(c2ccc(N3CCC(CN4CCN(c5ccc(-n6cc(-c7cc(Cl)cc(NS(=O)(=O)N8CC(F)C8)c7F)c(-c7ccncc7)n6)cc5)CC4)CC3)nc2)C(=O)N1 (racemic) [Compound 332, Rac-N-{5-chloro-3-[1-(4-{4-[(1-{5-[(3R)-2,6-dioxopiperidin-3-yl]pyridin-2-yl}piperidin-4-yl)methyl]piperazin-1-yl}phenyl)-3-(pyridin-4-yl)-1H-pyrazol-4-yl]-2-fluorophenyl}-3-fluoroazetidine-1-sulfonamide] | < 0.01 µM | > 70% | < 0.01 µM | > 70% | < 0.01 µM | 30 to 70% | < 0.01 µM | > 70% |  |  |  |  |  |  |  | 
C[C@@H]1CN(c2ccc(-n3cc(-c4cc(Cl)cc(NS(=O)(=O)N5CC[C@@H](F)C5)c4F)c(-c4ccncc4)n3)nc2)CCN1CC1CCN(c2ccc(N3CCC(=O)NC3=O)cc2)CC1 [Compound 322, (3R)—N-[5-chloro-3-(1-{5-[(3R)-4-({1-[4-(2,4-dioxo-1,3-diazinan-1-yl)phenyl]piperidin-4-yl}methyl)-3-methylpiperazin-1-yl]pyridin-2-yl}-3-(pyridin-4-yl)-1H-pyrazol-4-yl)-2-fluorophenyl]-3-fluoropyrrolidine-1-sulfonamide] | < 0.01 µM | > 70% | < 0.01 µM | 30 to 70% | < 0.01 µM | 30 to 70% | 0.05 to 0.5 µM | 30 to 70% |  |  |  |  |  |  |  | 
O=C1CC[C@H](c2ccc(N3CCC(CN4CCN(c5cnc(-n6cc(-c7cc(Cl)cc(NS(=O)(=O)N8CCCC8)c7F)c(-c7ccncc7)n6)nc5)CC4)CC3)cc2)C(=O)N1 [Compound 360, N-{5-chloro-3-[1-(5-{4-[(1-{4-[(3R)-2,6-dioxopiperidin-3-yl]phenyl}piperidin-4-yl)methyl]piperazin-1-yl}pyrimidin-2-yl)-3-(pyridin-4-yl)-1H-pyrazol-4-yl]-2-fluorophenyl}pyrrolidine-1-sulfonamide] | < 0.01 µM | > 70% | < 0.01 µM | > 70% | < 0.01 µM | > 70% | < 0.01 µM | 30 to 70% |  |  |  |  |  |  |  | 
CCCS(=O)(=O)Nc1cccc(-c2nc(C(C)(C)C)sc2-c2ccnc(Nc3ccc(C4CCN(CC[C@H]5CCN(c6ccc(C7CCC(=O)NC7=O)cn6)C5)CC4)cc3)n2)c1F (mixture of isomers) [Compound 173, N-{3-[2-tert-butyl-5-(2-{[4-(1-{2-[(3S)-1-{5-[(3RS)-2,6-dioxopiperidin-3-yl]pyridin-2-yl}pyrrolidin-3-yl]ethyl}piperidin-4-yl)phenyl]amino}pyrimidin-4-yl)-1,3-thiazol-4-yl]-2-fluorophenyl}propane-1-sulfonamide] |  |  |  |  |  |  |  |  | 0.01 to 0.05 µM | > 70% | > 0.5 µM | 30 to 70% | > 0.5 µM | 30 to 70% | > 0.5 µM | < 30%
CCCS(=O)(=O)Nc1cccc(-c2nc(C(C)(C)C)sc2-c2ccnc(Nc3cnn(C4CCN(C(=O)[C@H]5CC[C@H](Oc6ccc(C7CCC(=O)NC7=O)cn6)CC5)CC4)c3)n2)c1F (mixture of isomers) [Compound 109, N-[3-(2-tert-butyl-5-{2-[(1-{1-[(1r,4r)-4-({5-[(3RS)-2,6-dioxopiperidin-3-yl]pyridin-2-yl}oxy)cyclohexanecarbonyl]piperidin-4-yl}-1H-pyrazol-4-yl)amino]pyrimidin-4-yl}-1,3-thiazol-4-yl)-2-fluorophenyl]propane-1-sulfonamide] |  |  |  |  |  |  |  |  | < 0.01 µM | > 70% | > 0.5 µM | < 30% | > 0.5 µM | < 30% | > 0.5 µM | < 30%
CCN(C)S(=O)(=O)Nc1cc(Cl)cc(-c2cn(-c3ccc(N4CCN(CC5CCN(c6ccc(N7CCC(=O)NC7=O)cc6)CC5)CC4)cn3)nc2-c2ccncc2)c1F [Compound 311, 1-(4-{4-[(4-{6-[4-(5-chloro-3-{[ethyl(methyl)sulfamoyl]amino}-2-fluorophenyl)-3-(pyridin-4-yl)-1H-pyrazol-1-yl]pyridin-3-yl}piperazin-1-yl)methyl]piperidin-1-yl}phenyl)-1,3-diazinane-2,4-dione] | 0.01 to 0.05 µM | > 70% | 0.05 to 0.5 µM | 30 to 70% | 0.01 to 0.05 µM | 30 to 70% | > 0.5 µM | 30 to 70% |  |  |  |  |  |  |  | 
CCCS(=O)(=O)Nc1cccc(-c2nc(C(C)(C)C)sc2-c2ccnc(Nc3ccc(N4CCN(C(=O)[C@@H]5CCN(c6ccc([C@H]7CCC(=O)NC7=O)cn6)C5)CC4)c(F)c3)n2)c1F (racemic) [Compound 49, Rac-N-(3-(2-(tert-butyl)-5-(2-((4-(4-((R)-1-(5-((R)-2,6-dioxopiperidin-3-yl)pyridin-2-yl)pyrrolidine-3-carbonyl)piperazin-1-yl)-3-fluorophenyl)amino)pyrimidin-4-yl)thiazol-4-yl)-2-fluorophenyl)propane-1-sulfonamide] |  |  |  |  |  |  |  |  | < 0.01 µM | > 70% | > 0.5 µM | 30 to 70% | > 0.5 µM | 30 to 70% | > 0.5 µM | 30 to 70%
CCCS(=O)(=O)Nc1cccc(-c2nc(C3CCC4(CC3)CCN(C(=O)C3CCN(c5ccc6c(c5)C(=O)N(C5CCC(=O)NC5=O)C6=O)CC3)CC4)sc2-c2ccnc(N)n2)c1F (racemic) [Compound 245, Rac-N-{3-[5-(2-aminopyrimidin-4-yl)-2-[3-(1-{2-[(3R)-2,6-dioxopiperidin-3-yl]-1,3-dioxo-2,3-dihydro-1H-isoindol-5-yl}piperidine-4-carbonyl)-3-azaspiro[5.5]undecan-9-yl]-1,3-thiazol-4-yl]-2-fluorophenyl}propane-1-sulfonamide] |  |  |  |  |  |  |  |  | < 0.01 µM | > 70% | > 0.5 µM | 30 to 70% | < 0.01 µM | 30 to 70% | > 0.5 µM | 30 to 70%
O=C1CC[C@H](c2ccc(N3CCC(CN4CCN(c5ccc(-n6cc(-c7cc(Cl)cc(NS(=O)(=O)N8CC[C@@H](F)C8)c7F)c(-c7ccncc7)n6)c(F)c5)CC4)CC3)nc2)C(=O)N1 [Compound 334, (3R)—N-{5-chloro-3-[1-(4-{4-[(1-{5-[(3R)-2,6-dioxopiperidin-3-yl]pyridin-2-yl}piperidin-4-yl)methyl]piperazin-1-yl}-2-fluorophenyl)-3-(pyridin-4-yl)-1H-pyrazol-4-yl]-2-fluorophenyl}-3-fluoropyrrolidine-1-sulfonamide] | < 0.01 µM | > 70% | < 0.01 µM | > 70% | < 0.01 µM | > 70% | 0.01 to 0.05 µM | > 70% |  |  |  |  |  |  |  | 
CCCS(=O)(=O)Nc1cccc(-c2nc(C3CCC4(CC3)CCN(C(=O)CCCCCc3ccc5c(c3)C(=O)N(C3CCC(=O)NC3=O)C5)CC4)sc2-c2ccnc(N)n2)c1F (racemic) [Compound 235, Rac-N-{3-[5-(2-aminopyrimidin-4-yl)-2-[3-(6-{2-[(3R)-2,6-dioxopiperidin-3-yl]-3-oxo-2,3-dihydro-1H-isoindol-5-yl}hexanoyl)-3-azaspiro[5.5]undecan-9-yl]-1,3-thiazol-4-yl]-2-fluorophenyl}propane-1-sulfonamide] |  |  |  |  |  |  |  |  | < 0.01 µM | > 70% | > 0.5 µM | 30 to 70% | > 0.5 µM | 30 to 70% | > 0.5 µM | 30 to 70%
